Data on 1 molecule can be found in publication PMC7154863, “The First Case of Glyphosate Resistance in Johnsongrass (Sorghum halepense (L.) Pers.) in Europe” (Plants, 2020).

Structures are written as SMILES. pIC50: −log10 of the molar value.

This test relates to T1, 5-enolpyruvylshikimate-3-phosphate synthase (EPSPS).
T1 construct: native enzyme in leaf extract, not purified to homogeneity; partial EPSPS2 cDNA (543-bp fragment) without Pro106 or Thr102 substitution
In words: EnzCheck phosphate release assay, leaf extract, log-logistic fit. To be noted: range of estimates over seven populations without significant differences: 2.6 (GR6), 3.4 (GR1); the others only in the figure; glyphosate 0-1000 µM; 360 nm, 10 min; read-out: I50. The format is biochemical, Sorghum halepense.

`O=C(O)CNCP(=O)(O)O` [glyphosate]: the pIC50 was 5.47 to 5.59.
